Target: Hexokinase-4 (Human, UniProt P35557)
Test: Glucokinase Activity Assay
Experimental: Recombinant human liver glucokinase was expressed as a FLAG fusion protein in E. coli, and purified on […] M2 AFFINITY GEL (Sigma). The assay was carried out at 30° C. in a 96-well plate. In the plate was distributed 69 μl each of assay buffer (25 mM Hepes Buffer: pH=7.2, 2 mM MgCl2, 1 mM ATP, 0.5 mM TNAD, 1 mM dithiothreitol), to which was added 1 μl of a DMSO solution of the compound or DMSO as control. Then, 20 μl of pre-ice-cooled enzyme mixture (FLAG-GK, 20 U/ml G6PDH) was distributed thereto, to which was added 10 μl of 25 mM glucose as substrate to initiate the reaction (final glucose concentration=2.5 mM). After starting the reaction, the absorbance at 405 nm was measured every 30 seconds for 10 minutes to evaluate the compound based on the initial increase for 5 minutes. FLAG-GK was added so that the increase of absorbance after 5 minutes fell between 0.05 to 0.1 in the presence of 1% DMSO.

Sequence of Hexokinase-4 (P35557 whole entry, other chains not shown): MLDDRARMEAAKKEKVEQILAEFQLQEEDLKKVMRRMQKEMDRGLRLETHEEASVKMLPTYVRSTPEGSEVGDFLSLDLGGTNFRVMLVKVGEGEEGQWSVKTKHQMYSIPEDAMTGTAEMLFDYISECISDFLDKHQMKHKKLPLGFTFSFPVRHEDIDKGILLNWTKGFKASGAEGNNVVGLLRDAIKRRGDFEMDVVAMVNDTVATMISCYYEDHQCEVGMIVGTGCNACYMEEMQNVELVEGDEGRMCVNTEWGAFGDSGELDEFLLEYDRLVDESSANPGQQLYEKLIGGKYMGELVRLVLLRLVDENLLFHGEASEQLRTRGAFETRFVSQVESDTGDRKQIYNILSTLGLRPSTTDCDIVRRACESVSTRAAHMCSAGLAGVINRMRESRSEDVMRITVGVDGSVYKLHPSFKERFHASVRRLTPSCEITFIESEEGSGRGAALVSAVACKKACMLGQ

Going from `CCOC(=O)CSc1cnc(NC(=O)c2nc(Sc3ccc(F)cc3)ccc2Sc2ccc(F)cc2)s1` [US9527838, 27] to `CCOC(=O)Cc1nc(NC(=O)c2nc(Sc3ccc(F)cc3)ccc2Sc2ccc(F)cc2)sc1Cl` [US9527838, 29], the EC50 rises from 386 nM to 16000 nM (41-fold).

In the case of `CCOC(=O)C(C)(C)CSc1cnc(NC(=O)c2nc(Sc3nncn3C)ccc2Sc2ccc(F)cc2)s1` [US9527838, 20], the EC50 is reported as 16.9 nM.

Reference: BindingDB's records for patent US9527838 (Merck Sharp & Dohme Corp, 2016)
